Read-outs that look alike come from different tables or passages of the source.
Key:
[1] = molecular target: S. mansoni p97 (Smp_018240) (Schistosoma mansoni, UniProt G4M0P7); assay: biochemical; conditions: for IC50: Sm p97, 100 μM – 1 nM, read-out: S. mansoni IC50; for IC50 / Fold Selectivity: Suppl. Fig. 9C; for activity on the enzyme: schistosome p97; for Fold Selectivity: H. sapiens vs S. mansoni p97 IC50
Description: E. coli BL21 (DE3) containing the desired plasmid were grown in LB medium containing […] kanamycin while shaking at 37 °C to an OD600 of 0.6–0.8. The temperature was reduced to 18°C and 0.8 mM isopropyl-beta-D-thiogalactopyranoside (IPTG) was added. The bacterial culture was harvested 16hr later by centrifugation. The resulting pellet was suspended in 60 mL lysis buffer/2L bacterial culture [20 mM Tris (pH 7.4), 300 mM NaCl, 5 mM MgCl2, 20 mM imidazole, 1% Triton X-100, 1 mg/mL lysozyme, 10% glycerol, 3 mM β-mercaptoethanol, 0.2 mM PMSF, and protease inhibitor tablet (Roche)]. […] The lysate was centrifuged at 40,000 × rpm for 35 min at 4°C. The resulting supernatant was incubated with Ni-NTA beads equilibrated to lysis buffer for 1 hr at 4°C before being loaded onto a gravity column. The bead bed was washed with wash buffer [20 mM Tris (pH 7.4), 500 mM NaCl, 5 mM MgCl2, 40 mM imidazole, 0.05% Triton X-100, 10% glycerol, 3 mM β-mercaptoethanol, 0.2 mM PMSF, 0.001 mg/mL Aprotinin, and 0.002 mg/mL Leupeptin], then eluted in the same buffer with 250 mM imidazole in wash buffer. Fractions containing p97 were concentrated using Pierce Protein Concentrators (100k MWCO) and loaded onto a gel-filtration column (Superdex 200PG) and eluted using SEC buffer [20 mM Tris (pH 7.4), 180 mM NaCl, 5 mM MgCl2, and 10% glycerol] at 0.5 mL/min flow rate on a BioRad NGC Chromatography System. Fractions corresponding to an apparent molecular weight of 500 – 600 kDa were collected and analyzed by 4–20% SDS/PAGE to evaluate purity. Concentration was determined using a BSA standard. Fractions containing purified protein were aliquoted, snap frozen in liquid nitrogen, and stored at −80 °C until use.
For manual ATP consumption assays, 1 μM p97 was incubated with 1% DMSO or inhibitor (1% DMSO final) in assay buffer [50 mM Tris (pH 7.5), 20 mM MgCl2, 1 mM EDTA, 0.5 mM tris(2-carboxyethyl)phosphine (TCEP)] for 5 minutes prior to the addition of 20 μM ATP in a 384-well plate for a total reaction volume of 10 μL, and a final concentration of 500nM enzyme and 10 μM ATP. The reaction was allowed to proceed for 50 minutes at room temperature before adding equivalent volume of Kinase-Glo Plus reagent (Promega), and a further incubation of 10 minutes in the dark.
IC50 values were calculated using GraphPad Prism.

adult S. mansoni worms = assay: Treatment of adult S. mansoni worms in culture with inhibitors (attachment to tissue culture substrate, morphology; single 10 μM and dose-response EC50); format: cell-based, Schistosoma mansoni; conditions: for EC50: Schistosoma mansoni; for effect on adult worms: benzoxazole propiolamide series, treated 72 hours, monitored until D5
Description: Adult S. mansoni (NMRI strain) (6–7 weeks post-infection) worms were harvested from infected female Swiss Webster mice by hepatic portal vein perfusion using 37°C DMEM (Mediatech, Manassas, VA), 8% Horse Serum, and heparin.
Roughly 5 adult worm pairs were placed in 3mL Basch medium in a 12-well culture vessel, and incubated at 37°C, 5% CO2 for the length of the experiment. Compound was administered at D0, D1, and D2, media and drug refreshed every 24 hr. Worms were then allowed to remain in culture until D5, where a final assessment of worm attachment to tissue culture substate was made by light microscopy. Observations on movement and morphology were also recorded. A negative control (0.1% DMSO) and positive control (PZQ; 10 μM in 0.1% DMSO) were included in each experiment, and each experiment was repeated in triplicate for validation. For compounds that caused complete detachment in replicate experiments, the treatment was expanded to three concentrations (10 μM, 5 μM, and 1 μM) following the same treatment schedule and controls as detailed above. […] Each titration experiment was performed in triplicate according to the treatment regimen described above, using DMSO and PZQ as appropriate controls. Morphologies and motility were assessed by light microscopy, and dose-response curves were calculated using the primary readout of parasite attachment to tissue culture substrate in GraphPad Prism. […]
[…] Values were calculated using Prism.

H. sapiens p97 (P55072) = molecular target: T1, H. sapiens p97 (P55072) (Homo sapiens, UniProt P55072); assay: p97 ATPase activity, ATP consumption assay (Kinase-Glo), IC50 / counter screen; format: biochemical; conditions: Hs p97; 100 μM – 1 nM; Suppl. Fig. 9C
T1 construct: 6xHis (C); made in house; host or cells: E. coli BL21 (DE3)
T1 sequence (P55072 whole entry): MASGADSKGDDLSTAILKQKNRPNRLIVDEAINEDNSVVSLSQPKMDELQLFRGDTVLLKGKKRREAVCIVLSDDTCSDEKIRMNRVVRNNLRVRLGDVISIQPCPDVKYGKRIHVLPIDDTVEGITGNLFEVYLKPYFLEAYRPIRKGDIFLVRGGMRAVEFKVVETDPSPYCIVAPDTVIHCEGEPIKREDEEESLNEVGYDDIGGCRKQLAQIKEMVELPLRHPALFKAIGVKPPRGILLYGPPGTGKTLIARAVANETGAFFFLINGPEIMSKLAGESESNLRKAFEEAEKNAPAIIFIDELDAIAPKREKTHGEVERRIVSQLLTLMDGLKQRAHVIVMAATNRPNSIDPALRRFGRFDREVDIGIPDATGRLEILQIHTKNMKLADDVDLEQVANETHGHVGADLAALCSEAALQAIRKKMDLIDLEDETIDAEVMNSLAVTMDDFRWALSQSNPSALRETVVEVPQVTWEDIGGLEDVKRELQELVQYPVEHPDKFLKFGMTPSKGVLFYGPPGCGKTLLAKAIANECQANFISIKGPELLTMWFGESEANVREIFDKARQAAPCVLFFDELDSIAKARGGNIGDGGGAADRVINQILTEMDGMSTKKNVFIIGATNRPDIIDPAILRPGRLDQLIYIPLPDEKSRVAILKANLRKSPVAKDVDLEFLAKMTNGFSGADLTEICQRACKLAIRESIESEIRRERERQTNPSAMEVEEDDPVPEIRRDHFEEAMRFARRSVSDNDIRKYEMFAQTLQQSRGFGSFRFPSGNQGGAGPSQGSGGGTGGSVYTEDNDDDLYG

HepG2 cells = assay: HepG2 cytotoxicity assay (Cell Titer Glo 2.0); format: cell-based, human; conditions: Homo sapiens
Description: HepG2 cells (ATCC) were plated at 2500 cells/well in 50 μL/well, dispersing cells using a 25g needle to break up clumps prior to plating. Plates were incubated for 24hr at 37C, 5% CO2. Following 24hr, 50 μL media containing 0.6% DMSO was added to a set of wells on one plate. The plate and Cell Titer Glo 2.0 reagent were brought to RT. A T=0 read was taken by adding 40 μL reagent/well, rocking the plate at 100 rpm for 2 min, then reading luminescence ~10 min later. […] 50 μL 2x concentrated compound was added to wells containing cells in 50 μL 24 hr after plating. Concentrations were tested in triplicate at following values: 30, 10, 3.3, 1.1, 0.37, 0.12, and 0.04 μM. Plates were incubated for 72 hr at 37C, 5% CO2. Following equilibration to room temperature, 40 μL undiluted reagent was added to each well, the plate rocked at 100 rpm for 2 min and then read for luminescent signal ~10 min later.
Values are plotted in excel and the 50% point determined by interpolation. Values were revisualized in Prism.

[2] = adult parasites, fraction of worms attached, 72 hours of drug treatment, in culture until D5, 50 μM - 10 nM, Suppl. Fig. 9C, read-out: S. mansoni EC50
[3] = adult worms, MEK1 inhibitor, read-out: EC50

Sequence of S. mansoni p97 (Smp_018240) (G4M0P7 entry or part of it): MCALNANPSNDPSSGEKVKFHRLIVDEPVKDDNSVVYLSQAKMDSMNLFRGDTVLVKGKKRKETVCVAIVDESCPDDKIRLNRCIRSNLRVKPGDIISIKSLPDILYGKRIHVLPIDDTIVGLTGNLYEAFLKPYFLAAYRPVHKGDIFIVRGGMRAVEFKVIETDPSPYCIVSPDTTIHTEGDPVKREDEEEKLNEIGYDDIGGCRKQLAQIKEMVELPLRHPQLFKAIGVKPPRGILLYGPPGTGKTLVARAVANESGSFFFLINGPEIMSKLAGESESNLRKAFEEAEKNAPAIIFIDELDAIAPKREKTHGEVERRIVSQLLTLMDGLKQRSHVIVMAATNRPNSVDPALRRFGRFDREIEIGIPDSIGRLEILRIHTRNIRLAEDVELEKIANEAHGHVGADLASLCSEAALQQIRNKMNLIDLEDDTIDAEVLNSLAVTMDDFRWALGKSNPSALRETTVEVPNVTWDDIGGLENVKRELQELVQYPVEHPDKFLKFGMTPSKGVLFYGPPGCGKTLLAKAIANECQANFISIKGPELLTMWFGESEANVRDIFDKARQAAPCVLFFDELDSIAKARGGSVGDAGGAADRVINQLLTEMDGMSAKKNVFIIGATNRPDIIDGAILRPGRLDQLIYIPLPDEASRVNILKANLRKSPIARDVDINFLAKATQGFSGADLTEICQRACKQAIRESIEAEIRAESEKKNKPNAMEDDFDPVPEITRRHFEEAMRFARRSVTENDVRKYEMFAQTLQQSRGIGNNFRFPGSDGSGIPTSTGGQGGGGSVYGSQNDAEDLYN

## O=C(C#CC1CC1)Nc1ccc2oc(-c3ccccn3)nc2c1 [Compound 732, 3-cyclopropyl-N-(2-(pyridin-2-yl)benzo[d]oxazol-5-yl)propiolamide]
[1]
  IC50: > 100 µM
  activity on the enzyme: abolishing activity on the enzyme
Adult S. mansoni worms; [2]
  EC50: 1.3 µM
Adult S. mansoni worms; 10 μM
  effect on adult worms: still active on worms

## COc1ccc(C#CC(=O)Nc2ccc3oc(-c4ccccn4)nc3c2)cc1 [Compound 734, 3-(4-methoxyphenyl)-N-(2-(pyridin-2-yl)benzo[d]oxazol-5-yl)propiolamide]
H. sapiens p97 (P55072)
  IC50: 83 ± 6.5 µM
[1]
  Fold Selectivity: 1.7
  IC50: 48 ± 2.6 µM
  activity on the enzyme: decreased potency on the enzyme
Adult S. mansoni worms; [2]
  EC50: 7 µM
Adult S. mansoni worms; 10 μM
  effect on adult worms: decreased activity on the worms

## O=C(C#Cc1cccc(Cl)c1)Nc1ccc2oc(-c3ccccn3)nc2c1 [Compound 735, 3-(3-chlorophenyl)-N-(2-(pyridin-2-yl)benzo[d]oxazol-5-yl)propiolamide]
H. sapiens p97 (P55072)
  IC50: 7.3 ± 0.66 µM
[1]
  Fold Selectivity: 0.70
  IC50: 11 ± 0.47 µM
  activity on the enzyme: abolishing activity on the enzyme
Adult S. mansoni worms; [2]
  EC50: 4.2 µM
Adult S. mansoni worms; 10 μM
  effect on adult worms: still active on worms

## O=C(C#Cc1ccc(Cl)cc1)Nc1ccc2oc(-c3ccccn3)nc2c1 [Compound 736, 3-(4-chlorophenyl)-N-(2-(pyridin-2-yl)benzo[d]oxazol-5-yl)propiolamide]
H. sapiens p97 (P55072)
  IC50: 6.7 ± 0.055 µM
[1]
  Fold Selectivity: 1.1
  IC50: 5.9 ± 1.3 µM
  activity on the enzyme: decreased potency on the enzyme
Adult S. mansoni worms; [2]
  EC50: 12 µM
Adult S. mansoni worms; 10 μM
  effect on adult worms: decreased activity on the worms

## O=C(C#Cc1ccccn1)Nc1ccc2oc(-c3ccccn3)nc2c1 [Compound 737, 3-(pyridin-2-yl)-N-(2-(pyridin-2-yl)benzo[d]oxazol-5-yl)propiolamide]
H. sapiens p97 (P55072)
  IC50: 13 ± 2.2 µM
[1]
  Fold Selectivity: 4.3
  IC50: 3 ± 0.41 µM
  activity on the enzyme: decreased potency on the enzyme
Adult S. mansoni worms; [2]
  EC50: 22 µM
Adult S. mansoni worms; 10 μM
  effect on adult worms: decreased activity on the worms

## O=C(C#Cc1cccnc1)Nc1ccc2oc(-c3ccccn3)nc2c1 [Compound 738, N-(2-(pyridin-2-yl)benzo[d]oxazol-5-yl)-3-(pyridin-3-yl)propiolamide]
H. sapiens p97 (P55072)
  IC50: 0.78 ± 0.14 µM
[1]
  Fold Selectivity: 1.9
  IC50: 0.42 ± 0.057 µM
Adult S. mansoni worms; 10 μM
  time to detachment of adult worms in culture: ≤ 24 h
  effect on adult worms: death of the parasites
Adult S. mansoni worms; [2]
  EC50: 3.5 µM

## Cc1cccnc1-c1nc2cc(NC(=O)C#Cc3ccncc3)ccc2o1 [Compound 804, N-(2-(3-methylpyridin-2-yl)benzo[d]oxazol-5-yl)-3-(pyridin-4-yl)propiolamide]
H. sapiens p97 (P55072)
  IC50: 0.14 ± 0.062 µM
[1]
  Fold Selectivity: 0.70
  IC50: 0.19 ± 0.063 µM
HepG2 cells; HepG2, 72 h
  GI50: 0.93 µM
  IC50: 1.2 µM
HepG2 cells; HepG2, read-out: HepG2 GI50
  GI50: 0.93 µM
HepG2 cells; HepG2, read-out: HepG2 IC50
  IC50: 1.2 µM
Adult S. mansoni worms; [2]
  EC50: 0.76 µM

## Cc1ccnc(-c2nc3cc(NC(=O)C#Cc4ccncc4)ccc3o2)c1 [Compound 805, N-(2-(4-methylpyridin-2-yl)benzo[d]oxazol-5-yl)-3-(pyridin-4-yl)propiolamide]
H. sapiens p97 (P55072)
  IC50: 0.14 ± 0.078 µM
[1]
  Fold Selectivity: 0.80
  IC50: 0.17 ± 0.092 µM
HepG2 cells; HepG2, 72 h
  GI50: 1.2 µM
  IC50: 1.6 µM
HepG2 cells; HepG2, read-out: HepG2 GI50
  GI50: 1.2 µM
HepG2 cells; HepG2, read-out: HepG2 IC50
  IC50: 1.6 µM
Adult S. mansoni worms; [2]
  EC50: 2 µM

## Cc1ccc(-c2nc3cc(NC(=O)C#Cc4ccncc4)ccc3o2)nc1 [Compound 806, N-(2-(5-methylpyridin-2-yl)benzo[d]oxazol-5-yl)-3-(pyridin-4-yl)propiolamide]
H. sapiens p97 (P55072)
  IC50: 0.51 ± 0.16 µM
[1]
  Fold Selectivity: 1.1
  IC50: 0.47 ± 0.17 µM
HepG2 cells; HepG2, 72 h
  GI50: 1.5 µM
  IC50: 1.8 µM
HepG2 cells; HepG2, read-out: HepG2 GI50
  GI50: 1.5 µM
HepG2 cells; HepG2, read-out: HepG2 IC50
  IC50: 1.8 µM
Adult S. mansoni worms; [2]
  EC50: 3.2 µM

## Cc1cccc(-c2nc3cc(NC(=O)C#Cc4ccncc4)ccc3o2)n1 [Compound 807, N-(2-(6-methylpyridin-2-yl)benzo[d]oxazol-5-yl)-3-(pyridin-4-yl)propiolamide]
H. sapiens p97 (P55072)
  IC50: 0.49 ± 0.057 µM
[1]
  Fold Selectivity: 0.70
  IC50: 0.67 ± 0.17 µM
HepG2 cells; HepG2, 72 h
  GI50: 1.1 µM
  IC50: 1.4 µM
HepG2 cells; HepG2, read-out: HepG2 GI50
  GI50: 1.1 µM
HepG2 cells; HepG2, read-out: HepG2 IC50
  IC50: 1.4 µM
Adult S. mansoni worms; [2]
  EC50: 1.8 µM

## Nc1nc(=O)n(-c2ccccc2Cl)c2nc(C(F)(F)F)ccc12 [IDE397, reference compound]
Adult S. mansoni worms
  EC50: > 50 µM

## O=C(NOC[C@H](O)CO)c1ccc(F)c(F)c1Nc1ccc(I)cc1F [Mirdametinib, reference compound]
Adult S. mansoni worms; [3]
  EC50: > 50 µM

## CN(C)CCc1nnc2cc(-c3ccccc3)c3cc(Cl)ccc3n12 [PF-9366, reference compound]
Adult S. mansoni worms
  EC50: 43 µM

## CC(=O)Nc1cccc(-n2c(=O)n(C3CC3)c(=O)c3c(Nc4ccc(I)cc4F)n(C)c(=O)c(C)c32)c1 [Trametinib, reference compound]
Adult S. mansoni worms; [3]
  EC50: 0.65 µM

## O=C(N[C@@H](C1CC1)C(F)(F)F)c1cc(-c2cnn3cc(-c4ccc(F)cc4)cnc23)cs1 [ULK-101, reference compound]
Adult S. mansoni worms; initial concentration of 10 μM
  time in which inhibitor killed parasites: ≤ 24 h

Source: publication doi:10.1101/2025.03.14.643303, “A genome-scale drug discovery pipeline uncovers new therapeutic targets and a unique p97 allosteric binding site in Schistosoma mansoni” (bioRxiv, 2025)
